# Experimental data reported in US20060100431A1, “Biologically active compounds” (Amura Therapeutics Limited, priority 2002, published 2006).
# Where two headings read alike, the source gives them in different places.
# Legend:
# Bovine cathepsin S = target: T1, Bovine cathepsin S (Bos taurus, UniProt P25326); assay: Cathepsin S peptidase activity assay, bovine enzyme (Ki); type: biochemical
# T1 construct: purchased CN Biosciences
# How it was run: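 Bovine cathepsin S activity followed by fluorescence increase from substrate conversion to product over time, enzyme added to start the reaction, at 25±1° C. Buffer 10 mM bis-tris-propane pH 6.5 with 1 mM EDTA, 5 mM 2-mercaptoethanol, 1 mM CaCl2; DMSO kept below 1% (vol./vol.).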
# human cathepsin B = target: T2, human cathepsin B (Homo sapiens, UniProt P07858); assay: Cathepsin B peptidase activity assay (Ki); type: biochemical; settings: read-out: Ki, inhibitors of cathepsin B
# T2 construct: purchased CN Biosciences
# How it was run: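 Buffer: 10 mM bis-tris-propane pH 6.5, 1 mM EDTA, 5 mM 2-mercaptoethanol, 1 mM CaCl2; DMSO <1%. Ki assumed reversible, pure-competitive, from Ki^app=Ki(1+[So]/KM^app) by non-linear regression.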
# [1] = Table 5, read-out: Ki Bovine Cathepsin S
# [2] = species of cathepsin S not given, read-out: Ki, inhibitors of cathepsin S
# T1 sequence (P25326 115-331): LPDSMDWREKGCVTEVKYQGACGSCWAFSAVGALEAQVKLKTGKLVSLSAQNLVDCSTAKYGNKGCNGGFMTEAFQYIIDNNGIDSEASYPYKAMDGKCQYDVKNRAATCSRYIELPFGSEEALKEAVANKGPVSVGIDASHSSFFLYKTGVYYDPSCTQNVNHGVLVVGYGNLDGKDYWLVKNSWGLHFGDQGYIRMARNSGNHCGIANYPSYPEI
Compound,Ki (Bovine cathepsin S; [1]),Ki (human cathepsin B),Ki (Bovine cathepsin S; [2])
"O=C(N[C@@H](CC1CCCCC1)C(=O)N1CC[C@@H]2[C@H]1C(=O)CN2C(=O)c1ccccc1)c1ccsc1 [Example 250, (3aR,6aS)-Thiophene-3-carboxylic acid [(1S)-2-(4-benzoyl-6-oxo-hexahydro-pyrrolo[3,2-b]pyrrole-1-yl)-1-cyclohexylmethyl-2-oxo-ethyl]-amide]",< 0.1 µM,–,–
"CC(C)(C)c1ccc(C(=O)N[C@@H](Cc2ccc(O)cc2)C(=O)N2CC[C@@H]3[C@H]2C(=O)CN3C(=O)c2ccccc2)cc1 [Example 346, (3aR,6aS)-N-[(1S)-2-(4-Benzoyl-6-oxo-hexahydro-pyrrolo[3,2-b]pyrrol-1-yl)-1-(4-hydroxybenzyl)-2-oxo-ethyl]-4-tert-butyl-benzamide]",> 10 µM,–,–
"CC(C)C[C@H](NC(=O)c1ccc2c(c1)CCCN2)C(=O)N1CC[C@@H]2[C@H]1C(=O)CN2C(=O)c1ccccc1 [Example 87, (3aR,6aS)-1,2,3,4-Tetrahydro-quinoline-6-carboxylic acid [(1S)-1-(4-benzoyl-6-oxo-hexahydro-pyrrolo[3,2-b]pyrrole-1-carbonyl)-3-methyl-butyl]-amide]",–,< 5 µM,< 5 µM
"CC(C)C[C@H](NC(=O)c1cccc(N(C)C)c1)C(=O)N1CC[C@@H]2[C@H]1C(=O)CN2C(=O)c1cccc(S(C)(=O)=O)c1 [Example 59, (3aR,6aS)-3-Dimethylamino-N-{(1S)-1-[4-(3-methanesulfonyl-benzoyl)-6-oxo-hexahydro-pyrrolo[3,2-b]pyrrole-1-carbonyl]-3-methyl-butyl}-benzamide]",–,< 5 µM,< 5 µM
"CC(C)C[C@H](NC(=O)c1cc2ccccc2s1)C(=O)N1CC[C@@H]2[C@H]1C(=O)CN2C(=O)c1ccccc1 [Example 7, (3aR,6aS)-Benzo[b]thiophene-2-carboxylic acid [(1S)-1-(4-benzoyl-6-oxo-hexahydro-pyrrolo[3,2-b]pyrrole-1-carbonyl)-3-methyl-butyl]-amide]",–,< 5 µM,< 5 µM
"CC(C)C[C@H](NC(=O)c1ccc(N2CCNCC2)cc1)C(=O)N1CC[C@@H]2[C@H]1C(=O)CN2C(=O)c1ccccc1 [Example 194, (3aR,6aS)-N-[(1S)-1-(4-Benzoyl-6-oxo-hexahydro-pyrrolo[3,2-b]pyrrole-1-carbonyl)-3-methyl-butyl]-4-piperazin-1-yl-benzamide]",–,< 5 µM,< 5 µM
"CC(C)C[C@H](NC(=O)c1ccc(OC(F)(F)F)cc1)C(=O)N1CC[C@@H]2[C@H]1C(=O)CN2C(=O)c1ccccc1 [Example 173, (3aR,6aS)-N-[(1S)-1-(4-Benzoyl-6-oxo-hexahydro-pyrrolo[3,2-b]pyrrole-1-carbonyl)-3-methyl-butyl]-4-trifluoromethoxy-benzamide]",–,< 5 µM,< 5 µM
"CC(C)C[C@H](NC(=O)c1ccc(N(C)C)cc1)C(=O)N1CC[C@@H]2[C@H]1C(=O)CN2C(=O)c1csc2ccccc12 [Example 103, (3aR,6aS)-N-{(1S)-1-[4-(Benzo[b]thiophene-3-carbonyl)-6-oxo-hexahydro-pyrrolo[3,2-b]pyrrole-1-carbonyl]-3-methyl-butyl}-4-dimethylamino-benzamide]",–,< 5 µM,< 5 µM
"CC(C)C[C@H](NC(=O)c1ccc(-n2cccn2)cc1)C(=O)N1CC[C@@H]2[C@H]1C(=O)CN2C(=O)c1ccccc1 [Example 91, (3aR,6aS)-N-[(1S)-1-(4-Benzoyl-6-oxo-hexahydro-pyrrolo[3,2-b]pyrrole-1-carbonyl)-3-methyl-butyl]-4-pyrazol-1-yl-benzamide]",–,< 5 µM,< 5 µM
"CC(C)C[C@H](NC(=O)c1ccc(C(C)(C)C)cc1)C(=O)N1NC[C@@H]2[C@H]1C(=O)CN2C(=O)c1ccccc1 [Example 249a, (3aR,6aS)-N-[(1S)-1-(4-benzoyl-6-oxo-hexahydropyrrolo[3,2-c]pyrazole-1-carbonyl)-3-methylbutyl]-4-tert-butylbenzamide]",–,< 5 µM,< 5 µM
"CC(C)C[C@H](NC(=O)c1ccc2ncsc2c1)C(=O)N1CC[C@@H]2[C@H]1C(=O)CN2C(=O)c1ccccc1 [Example 90, (3aR,6aS)-Benzothiazole-6-carboxylic acid [(1S)-1-(4-benzoyl-6-oxo-hexahydro-pyrrolo[3,2-b]pyrrole-1-carbonyl)-3-methyl-butyl]-amide]",–,< 5 µM,< 5 µM
"CC(C)C[C@H](NC(=O)c1ccc(N(C)C)cc1)C(=O)N1CC[C@@H]2[C@H]1C(=O)CN2C(=O)[C@@H](NC(=O)OCc1ccccc1)C(C)C [Example 158, (3aS,6aR)-((S)-1-{4-[(2S)-2-(4-Dimethylamino-benzoylamino)-4-methyl-pentanoyl]-3-oxo-hexahydro-pyrrolo[3,2-b]pyrrole-1-carbonyl}-2-methyl-propyl)-carbamic acid benzyl ester]",–,< 5 µM,< 5 µM
"CC(C)C[C@H](NC(=O)c1ccc(N)cc1)C(=O)N1NC[C@@H]2[C@H]1C(=O)CN2C(=O)c1cccc(S(C)(=O)=O)c1 [Example 249c, (3aR,6aS)-4-amino-N-{(1S)-1-[4-(3-methanesulfonylbenzoyl)-6-oxo-hexahydropyrrolo [3,2-c]pyrazole-1-carbonyl]-3-methylbutyl}benzamide]",–,< 5 µM,< 5 µM
"CC(C)C[C@H](NC(=O)c1ccc(N(C)C)cc1)C(=O)N1CC[C@@H]2[C@H]1C(=O)CN2C(=O)c1ccccc1 [Example 14, (3aR,6aS)-N-[(1S)-1-(4-Benzoyl-6-oxo-hexahydro-pyrrolo[3,2-b]pyrrole-1-carbonyl)-3-methyl-butyl]-4-dimethylamino-benzamide]",–,< 5 µM,< 5 µM
"CC(=O)N[C@@H](CC(C)C)C(=O)N1CC(=O)[C@@H]2[C@H]1CCN2C(=O)[C@H](CC(C)C)NC(=O)c1ccc(N(C)C)cc1 [Example 151, (3aR,6aS)-N-{(1S)-1-[4-((2S)-2-Acetylamino-4-methyl-pentanoyl)-6-oxo-hexahydro-pyrrolo[3,2-b]pyrrole-1-carbonyl]-3-methyl-butyl}-4-dimethylamino-benzamide]",–,< 5 µM,< 5 µM
"CC(C)C[C@H](NC(=O)c1cccc(N2CCNCC2)c1)C(=O)N1CC[C@@H]2[C@H]1C(=O)CN2C(=O)c1ccccc1 [Example 247, (3aR,6aS)-N-[(1S)-1-(4-Benzoyl-6-oxo-hexahydro-pyrrolo[3,2-b]pyrrole-1-carbonyl)-3-methyl-butyl]-3-piperazin-1-yl-benzamide]",–,< 5 µM,< 5 µM
"O=C(N[C@@H](Cc1ccc(O)cc1)C(=O)N1CC[C@@H]2[C@H]1C(=O)CN2C(=O)c1ccccc1)c1cccc2ccccc12 [Example 296, (3aR,6aS)-Naphthalene-1-carboxylic acid [(1S)-2-(4-benzoyl-6-oxo-hexahydro-pyrrolo[3,2-b]pyrrole-1-yl)-1-(4-hydroxybenzyl)-2-oxo-ethyl]-amide]",> 5 µM,< 5 µM,–
"CC(C)C[C@H](NC(=O)c1ccc(-c2cccs2)cc1)C(=O)N1CC[C@@H]2[C@H]1C(=O)CN2C(=O)c1ccccc1 [Example 2, (3aR,6aS)-N-[(1S)-1-(4-Benzoyl-6-oxo-hexahydro-pyrrolo[3,2-b]pyrrole-1-carbonyl)-3-methyl-butyl]-4-thiophen-2-yl-benzamide]",> 1 µM,< 5 µM,–
"CC(C)CC(NC(=O)c1ccc(N)cc1)C(=O)N1NC[C@@H]2[C@H]1C(=O)CN2C(=O)c1ccccc1 (stereo partly drawn) [Example 249b, (3aR,6aS)-4-amino-N-[1-(4-benzoyl-6-oxo-hexahydropyrrolo[3,2-c]pyrazole-1-carbonyl)-3-methylbutyl)benzamide]",–,< 5 µM,< 5 µM
